Test results published in paper PMC3804614, “Transient Receptor Potential Channels Encode Volatile Chemicals Sensed by Rat Trigeminal Ganglion Neurons” (PLoS ONE, 2013).
Like-named read-outs stand apart in the source and are kept apart here.

Assays:
Assay type in all cases: cell-based
rTRPV1 = biological target: T1, rTRPV1 (Rattus norvegicus, UniProt O35433); experiment: whole-cell voltage clamp, CHO cells expressing rTRPV1; block of odorant-evoked currents
T1 construct: gene Trpv1

rTRPA1 = biological target: T2, rTRPA1 (Rattus norvegicus, UniProt Q6RI86); experiment: whole-cell voltage clamp, CHO cells expressing rTRPA1; block of odorant-evoked currents
T2 construct: gene Trpa1
T2 sequence (Q6RI86 whole entry): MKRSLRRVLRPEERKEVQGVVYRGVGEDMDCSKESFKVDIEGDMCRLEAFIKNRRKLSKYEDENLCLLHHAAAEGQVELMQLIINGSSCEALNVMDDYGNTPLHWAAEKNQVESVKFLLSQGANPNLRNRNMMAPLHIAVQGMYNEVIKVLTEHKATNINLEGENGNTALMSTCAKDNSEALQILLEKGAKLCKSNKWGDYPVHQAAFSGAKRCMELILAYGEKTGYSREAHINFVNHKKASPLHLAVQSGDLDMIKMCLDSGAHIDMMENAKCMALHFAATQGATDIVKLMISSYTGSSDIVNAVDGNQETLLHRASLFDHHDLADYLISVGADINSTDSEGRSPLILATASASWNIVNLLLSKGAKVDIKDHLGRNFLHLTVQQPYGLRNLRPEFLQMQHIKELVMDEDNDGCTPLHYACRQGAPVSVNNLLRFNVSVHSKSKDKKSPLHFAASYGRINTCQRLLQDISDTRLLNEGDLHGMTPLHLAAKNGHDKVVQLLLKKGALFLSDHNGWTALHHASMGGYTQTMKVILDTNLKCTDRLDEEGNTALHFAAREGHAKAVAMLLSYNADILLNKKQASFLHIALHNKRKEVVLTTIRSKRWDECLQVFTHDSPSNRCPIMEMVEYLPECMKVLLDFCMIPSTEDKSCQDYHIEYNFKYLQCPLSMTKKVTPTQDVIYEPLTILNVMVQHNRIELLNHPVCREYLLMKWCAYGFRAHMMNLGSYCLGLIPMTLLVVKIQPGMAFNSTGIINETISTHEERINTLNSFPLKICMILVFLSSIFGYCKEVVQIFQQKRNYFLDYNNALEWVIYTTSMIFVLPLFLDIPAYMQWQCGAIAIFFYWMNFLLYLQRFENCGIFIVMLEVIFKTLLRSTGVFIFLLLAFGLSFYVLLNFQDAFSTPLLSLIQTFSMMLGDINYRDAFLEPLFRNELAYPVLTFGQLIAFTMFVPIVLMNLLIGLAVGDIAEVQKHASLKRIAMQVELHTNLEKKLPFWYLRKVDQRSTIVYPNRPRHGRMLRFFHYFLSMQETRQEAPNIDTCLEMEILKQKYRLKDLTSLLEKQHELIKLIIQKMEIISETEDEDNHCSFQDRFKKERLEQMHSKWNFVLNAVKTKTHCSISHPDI

rTASK1 (K2P3, KCNK3) = rTASK1 (K2P3, KCNK3) (Rattus norvegicus, UniProt O54912); experiment: two-electrode voltage clamp, Xenopus oocytes expressing rTASK1, dose-response
Chain of rTASK1 (K2P3, KCNK3) (O54912 whole entry): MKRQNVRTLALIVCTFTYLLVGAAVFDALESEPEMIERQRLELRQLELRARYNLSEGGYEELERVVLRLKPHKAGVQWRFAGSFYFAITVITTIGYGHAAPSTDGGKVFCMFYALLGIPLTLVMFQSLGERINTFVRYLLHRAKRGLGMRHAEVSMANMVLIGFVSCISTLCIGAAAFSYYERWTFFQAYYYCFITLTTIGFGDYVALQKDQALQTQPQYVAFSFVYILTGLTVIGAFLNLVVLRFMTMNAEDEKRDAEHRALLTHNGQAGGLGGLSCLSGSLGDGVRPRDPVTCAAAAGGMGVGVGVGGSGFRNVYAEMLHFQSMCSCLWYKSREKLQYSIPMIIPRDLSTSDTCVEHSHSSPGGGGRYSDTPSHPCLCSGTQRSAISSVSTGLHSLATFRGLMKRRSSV

T1 sequence (O35433 whole entry): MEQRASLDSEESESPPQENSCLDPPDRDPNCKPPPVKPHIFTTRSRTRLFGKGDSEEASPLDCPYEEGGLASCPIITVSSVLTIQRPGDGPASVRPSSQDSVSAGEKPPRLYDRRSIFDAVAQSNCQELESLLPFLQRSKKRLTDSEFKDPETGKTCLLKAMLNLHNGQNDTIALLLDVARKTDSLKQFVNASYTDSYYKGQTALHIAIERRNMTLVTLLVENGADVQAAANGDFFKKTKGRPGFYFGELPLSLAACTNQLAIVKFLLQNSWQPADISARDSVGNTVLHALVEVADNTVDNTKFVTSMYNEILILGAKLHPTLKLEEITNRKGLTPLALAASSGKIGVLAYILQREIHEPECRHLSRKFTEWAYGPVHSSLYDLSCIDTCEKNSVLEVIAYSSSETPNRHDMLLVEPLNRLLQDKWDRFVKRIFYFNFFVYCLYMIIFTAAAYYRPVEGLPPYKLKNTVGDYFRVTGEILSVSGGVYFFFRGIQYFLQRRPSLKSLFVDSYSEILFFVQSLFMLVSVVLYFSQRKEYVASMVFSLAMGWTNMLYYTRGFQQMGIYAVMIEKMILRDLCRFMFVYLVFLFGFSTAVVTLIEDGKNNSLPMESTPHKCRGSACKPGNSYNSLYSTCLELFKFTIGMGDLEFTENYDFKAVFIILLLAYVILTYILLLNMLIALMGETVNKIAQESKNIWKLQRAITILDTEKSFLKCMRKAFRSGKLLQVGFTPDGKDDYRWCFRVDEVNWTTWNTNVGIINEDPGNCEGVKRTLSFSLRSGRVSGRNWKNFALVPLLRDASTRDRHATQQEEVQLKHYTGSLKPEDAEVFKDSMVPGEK

Compound: Oc1cc2c(cc1O)CN(C(=S)NCCc1ccc(Cl)cc1)CCC2 [CPZ, capsazepine]
- whole-cell voltage clamp, CHO cells expressing rTRPV1; block of odorant-evoked c (rTRPV1): Co-administration of CPZ nearly completely inhibited all odorant-evoked outward currents

Compound: CC(C)c1ccc(NC(=O)Cn2cnc3c2c(=O)n(C)c(=O)n3C)cc1 [HC, HC-030031]
- whole-cell voltage clamp, CHO cells expressing rTRPA1; block of odorant-evoked c (rTRPA1): Co-administration of HC nearly completely inhibited vanillin- and HTPA-evoked outward and inward currents

Compound: CC(C)=CCC/C(C)=C/CO [geraniol]
- IC50 (rTASK1 (K2P3, KCNK3); read-out: IC50): 580 ± 90 µM

Compound: CC(=O)CCc1ccc2c(c1)OCO2 [heliotropyl acetone]
- IC50 (rTASK1 (K2P3, KCNK3)): 890 ± 120 µM
